The term Ki denotes a measure of affinity in units of concentration, obtained from inhibition or displacement.

Sequence of human RIP1 kinase domain (2-375) (Q13546 2-375): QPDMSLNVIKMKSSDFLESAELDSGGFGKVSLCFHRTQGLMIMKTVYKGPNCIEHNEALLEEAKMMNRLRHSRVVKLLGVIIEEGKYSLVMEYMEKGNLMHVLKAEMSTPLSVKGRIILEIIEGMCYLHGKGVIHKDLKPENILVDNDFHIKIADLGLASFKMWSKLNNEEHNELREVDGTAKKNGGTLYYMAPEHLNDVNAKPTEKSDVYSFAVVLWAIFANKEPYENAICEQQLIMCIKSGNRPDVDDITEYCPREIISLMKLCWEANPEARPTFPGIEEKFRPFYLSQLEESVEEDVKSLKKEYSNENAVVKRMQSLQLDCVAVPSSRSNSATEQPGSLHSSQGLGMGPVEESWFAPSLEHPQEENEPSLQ

One test addresses human RIP1 kinase domain (2-375) (Homo sapiens (Human), UniProt Q13546). The experiment in a line: biochemical. The test is classed as biochemical. The note with it: RIP1 Ki. The essentials:
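50 nM purified kinase domain from baculovirus-infected insect cells, incubated 2 h with compound in 50 mM Hepes pH 7.5, 30 mM MgCl2, 1 mM DTT, 50 uM ATP, 0.002% Brij-35, 0.5% DMSO. ADP formation read by Transcreener FP at 633 nm excitation. Ki^app fitted with the Morrison tight-binding equation.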
`CN1C(=O)[C@@H](NC(=O)c2n[nH]c3ccc(C(F)(F)F)cc23)COc2ccccc21` [Example 115, (S)—N-(5-methyl-4-oxo-2,3,4,5-tetrahydrobenzo[b][1,4]oxazepin-3-yl)-5-(trifluoromethyl)-1H-indazole-3-carboxamide] showed a Ki of 4.9 nM.

Still in this test, the particulars now being: human RIP1 kinase domain (2-375), 50 uM ATP, 2 hours incubation, Transcreener ADP assay; read-out: RIP1 Ki.
Consider `CN1C(=O)C(NC(=O)c2ncn(Cc3ccccc3)n2)CCn2c1nc1ccccc12` (stereo not shown) [Example 111, 1-benzyl-N-(1-methyl-2-oxo-2,3,4,5-tetrahydro-1H-benzo[4,5]imidazo[1,2-a][1,3]diazepin-3-yl)-1H-1,2,4-triazole-3-carboxamide], for which the Ki came to 126 nM. The same measure, in the same setting: the figure for `CN1C(=O)[C@@H](NC(=O)c2nnc3n2CC(C(F)(F)C(F)(F)F)CC3)COc2ccccc21` (stereo partly drawn) [Example 116, N—((S)-5-methyl-4-oxo-2,3,4,5-tetrahydrobenzo[b][1,4]oxazepin-3-yl)-6-(perfluoroethyl)-5,6,7,8-tetrahydro-[1,2,4]triazolo[4,3-a]pyridine-3-carboxamide] is 371 nM.

Regarding `CN1C(=O)[C@@H](NC(=O)c2n[nH]c3ncc(C(F)(F)C(F)(F)F)cc23)COc2ccccc21` [Example 117, (S)—N-(5-methyl-4-oxo-2,3,4,5-tetrahydrobenzo[b][1,4]oxazepin-3-yl)-5-(perfluoroethyl)-1H-pyrazolo[3,4-b]pyridine-3-carboxamide], the Ki was 5.6 nM. Same read-out and setting: the figure for `CN1C(=O)[C@@H](NC(=O)c2nnn3c2CC2(CCCC2)C3)COc2ccccc21` [Example 118, (S)—N-(5-methyl-4-oxo-2,3,4,5-tetrahydrobenzo[b][1,4]oxazepin-3-yl)-4′H,6′H-spiro[cyclopentane-1,5′-pyrrolo[1,2-c][1,2,3]triazole]-3′-carboxamide] is 50.4 nM; for `CN1C(=O)[C@@H](NC(=O)c2nnn3c2CC(c2ccccc2)C3)COc2ccccc21` (stereo partly drawn) [Example 119, N—((S)-5-methyl-4-oxo-2,3,4,5-tetrahydrobenzo[b][1,4]oxazepin-3-yl)-5-phenyl-5,6-dihydro-4H-pyrrolo[1,2-c][1,2,3]triazole-3-carboxamide] it is 201 nM; for `CN1C(=O)[C@@H](NC(=O)c2nnn3c2CC2(CCCC2)C3)CCn2nccc21` [Example 120, (S)—N-(4-methyl-5-oxo-5,6,7,8-tetrahydro-4H-pyrazolo[1,5-a][1,3]diazepin-6-yl)-4′H,6′H-spiro[cyclopentane-1,5′-pyrrolo[1,2-c][1,2,3]triazole]-3′-carboxamide] it is 2100 nM. Still for that read-out and setting: the value for `CN1C(=O)[C@@H](NC(=O)c2nnn3c2CC(c2ccccc2)C3)CCn2nccc21` (stereo partly drawn) [Example 121, N—((S)-4-methyl-5-oxo-5,6,7,8-tetrahydro-4H-pyrazolo[1,5-a][1,3]diazepin-6-yl)-5-phenyl-5,6-dihydro-4H-pyrrolo[1,2-c][1,2,3]triazole-3-carboxamide] was 8700 nM; that for `CC(C)n1ncc2cnc(C(=O)N[C@H]3COc4ccccc4N(C)C3=O)nc21` [Example 122, (S)-1-isopropyl-N-(5-methyl-4-oxo-2,3,4,5-tetrahydrobenzo[b][1,4]oxazepin-3-yl)-1H-pyrazolo[3,4-d]pyrimidine-6-carboxamide] was 19.5 nM. On the same count and under the same terms, the figure for `CN1C(=O)[C@@H](NC(=O)c2nc3n(n2)C(c2ccccc2)COC3)COc2ccccc21` (stereo partly drawn) [Example 123, N—((S)-5-methyl-4-oxo-2,3,4,5-tetrahydrobenzo[b][1,4]oxazepin-3-yl)-5-phenyl-5,6-dihydro-8H-[1,2,4]triazolo[5,1-c][1,4]oxazine-2-carboxamide] is 268 nM; for `CN1C(=O)[C@@H](NC(=O)c2nc3n(n2)C(c2ccccc2)CC3)CCn2nccc21` (stereo partly drawn) [Example 124, N—((S)-4-methyl-5-oxo-5,6,7,8-tetrahydro-4H-pyrazolo[1,5-a][1,3]diazepin-6-yl)-5-phenyl-6,7-dihydro-5H-pyrrolo[1,2-b][1,2,4]triazole-2-carboxamide] it is 76.8 nM; for `CN1C(=O)[C@@H](NC(=O)c2cc3c(cn2)cnn3CC(F)(F)F)COc2ccccc21` [Example 127, N-[(3S)-5-methyl-4-oxo-2,3-dihydro-1,5-benzoxazepin-3-yl]-1-(2,2,2 trifluoroethyl)pyrazolo[4,3-c]pyridine-6-carboxamide] it is 237 nM.

Turning to `CN1C(=O)[C@@H](NC(=O)c2cc3c(cn2)cnn3C2CCOC2)COc2ccccc21` (stereo partly drawn) [Example 128, N—((S)-5-methyl-4-oxo-2,3,4,5-tetrahydrobenzo[b][1,4]oxazepin-3-yl)-1-(tetrahydrofuran-3-yl)-1H-pyrazolo[4,3-c]pyridine-6-carboxamide], the Ki stood at 61.4 nM.

Take `CN1C(=O)C(NC(=O)c2nnc(Cc3ccccc3)[nH]2)CCn2nc3c(c21)CCCC3` (stereo not shown) [Example 133, 5-benzyl-N-(1-methyl-2-oxo-2,3,4,5,8,9,10,11-octahydro-1H-[1,3]diazepino[1,2-b]indazol-3-yl)-4H-1,2,4-triazole-3-carboxamide]: the Ki stood at 127 nM.

Turning to `CN1C(=O)C(NC(=O)c2ncn(Cc3ccccc3)n2)CCn2nc(C3CC3(F)F)cc21` (stereo not shown) [Example 134, 1-benzyl-N-(2-(2,2-difluorocyclopropyl)-4-methyl-5-oxo-5,6,7,8-tetrahydr-4H-pyrazolo[1,5-a][1,3]diazepin-6-yl)-1H-1,2,4-triazole-3-carboxamide], the Ki amounted to 73.6 nM. The same measure, in the same setting: the figure for `CN1C(=O)C(NC(=O)c2cn(Cc3ccccc3)nn2)CCn2nc3c(c21)CCCC3` (stereo not shown) [Example 135, 1-benzyl-N-(1-methyl-2-oxo-2,3,4,5,8,9,10,11-octahydro-1H-[1,3]diazepino[1,2-b]indazol-3-yl)-1H-1,2,3-triazole-4-carboxamide] is 390 nM; for `CN1C(=O)C(NC(=O)c2ncn(Cc3ccccc3)n2)CCn2nc3c(c21)CCCC3` (stereo not shown) [Example 136, 1-benzyl-N-(1-methyl-2-oxo-2,3,4,5,8,9,10,11-octahydro-1H-[1,3]diazepino[1,2-b]indazol-3-yl)-1H-1,2,4-triazole-3-carboxamide] it is 110 nM; for `CN1C(=O)C(NC(=O)c2n[nH]c3c2C[C@@H](C(F)(F)F)CC3)CCn2nc3c(c21)CCCC3` (stereo partly drawn) [Example 137, (5S)—N-(1-methyl-2-oxo-2,3,4,5,8,9,10,11-octahydro-1H-[1,3]diazepino[1,2-b]indazol-3-yl)-5-(trifluoromethyl)-4,5,6,7-tetrahydro-1H-indazole-3-carboxamide] it is 1800 nM. Still for that read-out and setting: the value for `CCOc1ccc2[nH]nc(C(=O)N[C@H]3COc4ccccc4N(C)C3=O)c2n1` [Example 138, 5-ethoxy-N-[(3S)-5-methyl-4-oxo-2,3-dihydro-1,5-benzoxazepin-3-yl]-1H-pyrazolo[4,3-b]pyridine-3-carboxamide] was 3700 nM. Still for that read-out and setting: the figure for `CC(C)c1ccc2[nH]nc(C(=O)N[C@H]3COc4ccccc4N(C)C3=O)c2n1` [Example 139, 5-isopropyl-N-[(3S)-5-methyl-4-oxo-2,3-dihydro-1,5-benzoxazepin-3-yl]-1H-pyrazolo[4,3-b]pyridine-3-carboxamide] is 29.2 nM; for `CN1C(=O)C(NC(=O)c2ncn(Cc3ccccc3)n2)CCn2nc3c(c21)CS(=O)(=O)C3` (stereo not shown) [Example 140, 1-benzyl-N-(1-methyl-9,9-dioxido-2-oxo-1,2,3,4,5,10-hexahydro-8H-thieno[3′,4′:3,4]pyrazolo[1,5-a][1,3]diazepin-3-yl)-1H-1,2,4-triazole-3-carboxamide] it is 316 nM. Regarding `CN1C(=O)C(NC(=O)c2nnc(Cc3ccccc3)[nH]2)CCn2nc3c(c21)CS(=O)(=O)C3` (stereo not shown) [Example 141, 5-benzyl-N-(1-methyl-9,9-dioxido-2-oxo-1,2,3,4,5,10-hexahydro-8H-thieno[3′,4′:3,4]pyrazolo[1,5-a][1,3]diazepin-3-yl)-4H-1,2,4-triazole-3-carboxamide], the Ki was determined as 544 nM. On the same count and under the same terms, the value for `CN1C(=O)C(NC(=O)c2ncn(Cc3ccccc3)n2)CCn2nc3c(c21)CSC3` (stereo not shown) [Example 142, 1-benzyl-N-(1-methyl-2-oxo-1,2,3,4,5,10-hexahydro-8H-thieno[3′,4′:3,4]pyrazolo[1,5-a][1,3]diazepin-3-yl)-1H-1,2,4-triazole-3-carboxamide] was 65.8 nM.

For the compound `CN1C(=O)[C@@H](NC(=O)c2n[nH]c3ccc(Cl)nc23)COc2ccccc21` [Example 143, 5-chloro-N-[(3S)-5-methyl-4-oxo-2,3-dihydro-1,5-benzoxazepin-3-yl]-1H-pyrazolo[4,3-b]pyridine-3-carboxamide], the Ki was determined as 51.5 nM. On the same count and under the same terms, the value for `CN1C(=O)[C@@H](NC(=O)c2n[nH]c3ccc(C4CC4)nc23)COc2ccccc21` [Example 144, 5-cyclopropyl-N-[(3S)-5-methyl-4-oxo-2,3-dihydro-1,5-benzoxazepin-3-yl]-1H-pyrazolo[4,3-b]pyridine-3-carboxamide] was 248 nM.

As for `CN1C(=O)C(NC(=O)c2nnc(Cc3ccccc3)[nH]2)CCn2nc3c(c21)CSC3` (stereo not shown) [Example 145, 5-benzyl-N-(1-methyl-2-oxo-1,2,3,4,5,10-hexahydro-8H-thieno[3′,4′:3,4]pyrazolo[1,5-a][1,3]diazepin-3-yl)-4H-1,2,4-triazole-3-carboxamide], the Ki was found to be 78.6 nM. Same read-out and setting: the figure for `CN1C(=O)[C@@H](NC(=O)c2cn(Cc3ccc(F)c(F)c3)cn2)CCn2nccc21` [Example 146, (S)-1-(3,4-difluorobenzyl)-N-(4-methyl-5-oxo-5,6,7,8-tetrahydro-4H-pyrazolo[1,5-a][1,3]diazepin-6-yl)-1H-imidazole-4-carboxamide] is 301 nM.

The same test, now with this note: read-out: RIP1 Ki.
With `CN1C(=O)[C@@H](NC(=O)c2nnc3ccc(C(F)(F)C(F)(F)F)nn23)COc2ccccc21` [Example 114, (S)—N-(5-methyl-4-oxo-2,3,4,5-tetrahydrobenzo[b][1,4]oxazepin-3-yl)-6-(perfluoroethyl)-[1,2,4]triazolo[4,3-b]pyridazine-3-carboxamide], the inhibition constant (Ki) worked out at 68.3 nM.
